The values below come from PubChem BioAssay (NCI).

Among the test systems are NCI-H522 lung; KM20L2 colon; XF 498 CNS; DLD-1 colon; M19-MEL melanoma; SNB-78 CNS; HOP-18 NSCLC; RXF 393 renal; DMS 114 small cell lung; DMS 273 small cell lung; T-47D breast; CCRF-CEM leukemia; LXFL 529 NSCLC; RXF-631 renal.
What all share (experiment): NCI anticancer screen, dose series, 48 h

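Dose response: 5 concentrations. Exposure: 48 h. Format: 96-well plates. Endpoint: linear interpolation; highest concentration if not reached. Abbreviation: GI50, concentration required for 50% inhibition of growth. TGI marks complete inhibition of growth.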

On to `CC(C)=CCC/C(C)=C/C=C/C(C)=C/C1C[C@@]2(C(O)O1)[C@H](CCCO)/C(=C(/C)C=O)CC[C@]2(C)O` (stereo not given in full), for which the TGI with NCI-H522 lung amounted to 36.7 µM; with KM20L2 colon, 29.1 µM; in the test on XF 498 CNS it was 32.7 µM; with DLD-1 colon, 44.4 µM; in the test with M19-MEL melanoma, 32.4 µM; in the test with SNB-78 CNS, 42 µM. Moreover, the TGI was determined as 33.4 µM in the test on HOP-18 NSCLC, 35.2 µM in the test on RXF 393 renal, 27.4 µM in the test with DMS 114 small cell lung and 7.82 µM in the test with DMS 273 small cell lung.

As for `CCOC(=O)c1csc(NC(=O)C(C)N2CCOCC2)n1` (stereo not given), the TGI in the test on T-47D breast, in the test with RXF 393 renal and in the test with CCRF-CEM leukemia was > 100 µM in each case.

Take `C/C(=N\NC(=S)N1CCOCC1)c1nc2ncccc2[nH]1`: the results for the TGI in the test on NCI-H522 lung, in the test on T-47D breast and in the test with CCRF-CEM leukemia were 59.3 µM, > 100 µM and > 100 µM, respectively.

Take `Cc1cc(Nc2ccc(Cl)cc2)nc(NCCCNc2ccnc3cc(Cl)ccc23)n1`: in the test on T-47D breast, the GI50 is 1.83 µM and the TGI was found to be 3.81 µM. For the same compound, in the test with RXF 393 renal, the GI50 was 1.52 µM and the TGI was 3.08 µM.

Regarding `COC(=O)C(NC(=O)c1ccccc1)C(c1c(O)cc(O)cc1O)P(=O)(OC)OC` (stereo not given), the TGI in the test with NCI-H522 lung, in the test on KM20L2 colon, in the test on XF 498 CNS, with DLD-1 colon, with M19-MEL melanoma and with LXFL 529 NSCLC was > 100 µM throughout. Further, the TGI in the test with RXF-631 renal, in the test with DMS 114 small cell lung, in the test on DMS 273 small cell lung and with CCRF-CEM leukemia was > 100 µM in each case.

In the case of `NC(Cc1ccccc1CP(=O)(O)O)C(=O)O` (stereo not given), the TGI with NCI-H522 lung, in the test with T-47D breast, with RXF 393 renal and in the test on CCRF-CEM leukemia was > 100 µM each time.

Consider `CCN(CC)CCNc1ccc([N+](=O)[O-])c2sc3cc(Cl)ccc3c(=O)c12`, for which the GI50 in the test on NCI-H522 lung is 9.01 µM; with T-47D breast, 29.8 µM; in the test with CCRF-CEM leukemia, 3.17 µM. Moreover, the TGI in the test on NCI-H522 lung, in the test on T-47D breast and with CCRF-CEM leukemia was > 100 µM each time.
